Measured values from patent publication US8293495B2, “Blood-brain barrier model” (Wisconsin Alumni Research Foundation, priority 2006, dated 2012).
Where a name gives a salt, the structure may show the parent alone.

Key:
BMEC = BMEC treated with glucocorticoid; cited from earlier work
BMEC monolayer = test: Fluorescein flux through BMEC monolayer co-cultured with differentiating NPC (in vitro BBB model); assay type: in vitro ADME, rat
Text: (§1) Many methods can be used to determine BBB permeability as well as uptake and efflux rates using an in vitro model. As an example, the rates for trans-BBB transport can be used to directly determine a pseudo steady-state permeability value (Pe) which is an estimate of in vivo permeability for a particular pharmaceutical compound, protein, or drug carrier. With the assumption that the concentration in the upper fluid compartment is static, and with a correction for the resistance provided by the membrane itself, the permeability can be readily determined for each test compound. Briefly, the transcytosis rate (Q) can be divided by the concentration of material added to the apical chamber (Ca) and the area of the membrane (Am) to yield a total permeability (Pt) that includes resistances due to the monolayer and the membrane (Pt=Q/[AmCa], or using clearance volume terminology Pt is equal to the slope of the clearance volume versus time line divided by the membrane area). Subsequently, Pe can be calculated by correcting for the resistance supplied by the cell free membrane (Pm) (1/Pe=1/Pt−1/Pm) (Bickel, U. How to measure drug transport across the blood-brain barrier. NeuroRx 2005, 2, 15-26.).
(§2) The permeability was assessed by determining the flux of fluorescein through the BMEC monolayer. Fluorescein sodium salt in DMEM was added to the apical filter compartment to produce a uniform initial concentration of 1 μM. Subsequently, 200 μl were removed from the basolateral compartment after 0, 15, 30, 45, and 60 min. The fluorescence was measured with the FLx800 fluorescence reader (Bio-Tek Instruments) and the rates of fluorescein accumulation in the lower compartment used to determine the permeability as described previously (Perriere et al. 2005).

[1] = as above; assay type: in vitro ADME, rat; details: rat; through the in vitro model, BMEC with NPC co-culture, 1 μM apical; read-out: permeability (Pe) (converted)
Text: as §1, §2

rat BMEC = rat BMEC co-cultured with astrocytes; cited from earlier work
[2] = cited from earlier work

Row | reduction of monolayer permeability by NPC co-culture (BMEC monolayer; BMEC with differentiating NPC vs BMEC without NPC, 24 h co-culture) | permeability (Pe) (BMEC monolayer; through the in vitro model, BMEC with NPC co-culture, 1 μM apical) | Papp A→B at 60 min, 1 μM [1] | Compound | TEER (BMEC) | frayed junctions (BMEC) | fluorescein permeability (rat BMEC) | crossing of the BBB in vivo [2]
1 |  |  |  | C[C@]12C[C@H](O)[C@H]3[C@@H](CCC4=CC(=O)CC[C@@]43C)[C@@H]1CC[C@@H]2C(=O)CO [corticosterone] | 168 Ω×cm^2 | 21 % frayed |  | 
2 | 33% | 5.5 ×10⁻⁶ cm/s | 5.5 ×10⁻⁶ cm/s | O=C1OC2(c3ccc(O)cc3Oc3cc(O)ccc32)c2ccccc21 [fluorescein, Fluorescein sodium salt] |  |  | 4.5 ×10⁻⁶ cm/s | does not appreciably cross the BBB
3 |  |  |  | C[C@]12CCC(=O)C=C1CC[C@@H]1[C@@H]2[C@@H](O)C[C@@]2(C)[C@H]1CC[C@]2(O)C(=O)CO [hydrocortisone] | 218 Ω×cm^2 | 12 % frayed |  | 
